# Experimental data from ChEMBL document CHEMBL5678804 (Cancer Cell, 2011).
# Calls of active or inactive are those of the source. The rule behind the calls is not given here.
# Assays:
# LIM domain kinase 1 = LIM domain kinase 1 (Homo sapiens, UniProt P53667); test: Inhibition of human wild type LIMK1 using CFL2 as substrate preincubated for 2 hrs followed by ATP addition and measured every 2 mins for […] by spectrophotometric analysis
# Wee1-like protein kinase = Wee1-like protein kinase (Homo sapiens, UniProt P30291); test: Inhibition of human wild type WEE1 using Poly(Ala,Glu,Lys,Tyr)6:2:5:1 as substrate preincubated for 2 hrs followed by ATP addition and measured every 2 mins for […] by spectrophotometric analysis
# Wee1-like protein kinase, sequence (P30291 whole entry): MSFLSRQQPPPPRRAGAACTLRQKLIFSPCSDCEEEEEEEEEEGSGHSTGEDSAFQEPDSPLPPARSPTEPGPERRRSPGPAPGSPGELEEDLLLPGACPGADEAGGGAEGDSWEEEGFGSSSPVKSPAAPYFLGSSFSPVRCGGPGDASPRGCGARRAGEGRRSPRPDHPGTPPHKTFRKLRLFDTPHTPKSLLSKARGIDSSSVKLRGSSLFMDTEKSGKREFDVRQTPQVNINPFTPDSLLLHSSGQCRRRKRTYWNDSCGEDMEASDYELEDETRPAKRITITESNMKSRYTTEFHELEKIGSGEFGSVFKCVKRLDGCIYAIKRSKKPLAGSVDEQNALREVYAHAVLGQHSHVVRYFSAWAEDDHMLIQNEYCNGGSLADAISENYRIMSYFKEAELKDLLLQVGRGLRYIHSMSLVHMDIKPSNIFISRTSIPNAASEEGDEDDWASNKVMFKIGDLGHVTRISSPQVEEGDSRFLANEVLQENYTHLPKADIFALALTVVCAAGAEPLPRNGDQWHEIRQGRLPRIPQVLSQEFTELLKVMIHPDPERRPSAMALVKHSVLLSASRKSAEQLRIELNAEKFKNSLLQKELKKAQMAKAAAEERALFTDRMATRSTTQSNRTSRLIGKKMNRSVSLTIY
# [1] = target: Tyrosine-protein kinase receptor TYRO3 (Homo sapiens, UniProt Q06418); test: Inhibition of human wild type SKY using PolyEY as substrate preincubated for 2 hrs followed by ATP addition and measured every 2 mins for […] by spectrophotometric analysis
# [2] = target: Glycogen synthase kinase-3 beta (Homo sapiens, UniProt P49841); test: Inhibition of human wild type GSK3 beta using RBER-CHKtide as substrate preincubated for 2 hrs followed by ATP addition and measured every 2 mins for […] by spectrophotometric analysis
# [3] = target: Serine/threonine-protein kinase TBK1 (Homo sapiens, UniProt Q9UHD2); test: Inhibition of human wild type TBK1 using Casein as substrate preincubated for 2 hrs followed by ATP addition and measured every 2 mins for […] by spectrophotometric analysis
# [4] = Inhibition of human wild type PDGFR beta using Poly(Ala,Glu,Lys,Tyr)6:2:5:1 as substrate preincubated for 2 hrs followed by ATP addition and measured every 2 mins for […] by spectrophotometric analysis
# [5] = target: Calcium/calmodulin-dependent protein kinase type 1 (Homo sapiens, UniProt Q14012); test: Inhibition of human CAMK1alpha preincubated for 2 hrs followed by ATP addition and measured every 2 mins for […] by spectrophotometric analysis
# Calcium/calmodulin-dependent protein kinase type 1, sequence (Q14012 whole entry): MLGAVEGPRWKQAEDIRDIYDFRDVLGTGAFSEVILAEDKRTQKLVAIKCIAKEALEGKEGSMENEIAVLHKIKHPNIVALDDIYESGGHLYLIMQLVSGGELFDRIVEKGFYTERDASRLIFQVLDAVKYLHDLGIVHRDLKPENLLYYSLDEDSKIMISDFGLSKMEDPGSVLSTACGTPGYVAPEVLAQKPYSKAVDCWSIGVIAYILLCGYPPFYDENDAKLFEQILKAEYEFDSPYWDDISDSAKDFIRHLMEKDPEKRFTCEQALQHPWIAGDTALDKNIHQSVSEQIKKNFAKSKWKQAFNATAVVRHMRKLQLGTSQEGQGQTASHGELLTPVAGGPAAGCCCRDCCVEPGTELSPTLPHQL
# TGF-beta receptor type-2 = TGF-beta receptor type-2 (Homo sapiens, UniProt P37173); test: Inhibition of human wild type TGFbetaR2 using RB-S6P as substrate preincubated for 2 hrs followed by ATP addition and measured every 2 mins for […] by spectrophotometric analysis
# TGF-beta receptor type-2, sequence (P37173 whole entry): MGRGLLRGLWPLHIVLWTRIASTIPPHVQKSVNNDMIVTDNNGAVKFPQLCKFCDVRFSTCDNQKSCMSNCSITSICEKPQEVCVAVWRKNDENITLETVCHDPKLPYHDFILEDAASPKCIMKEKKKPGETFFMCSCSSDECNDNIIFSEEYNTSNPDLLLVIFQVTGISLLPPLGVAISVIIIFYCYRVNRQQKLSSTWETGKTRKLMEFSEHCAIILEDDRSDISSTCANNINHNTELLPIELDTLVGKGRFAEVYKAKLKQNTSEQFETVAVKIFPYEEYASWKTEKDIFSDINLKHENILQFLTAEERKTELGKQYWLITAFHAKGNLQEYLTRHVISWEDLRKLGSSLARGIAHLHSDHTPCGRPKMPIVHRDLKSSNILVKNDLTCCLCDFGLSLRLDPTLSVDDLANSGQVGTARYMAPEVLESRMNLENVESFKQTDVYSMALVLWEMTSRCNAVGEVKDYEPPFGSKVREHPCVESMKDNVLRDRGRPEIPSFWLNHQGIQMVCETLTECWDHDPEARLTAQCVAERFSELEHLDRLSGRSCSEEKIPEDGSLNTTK
# [6] = target: Signal transducer and activator of transcription 5A (Homo sapiens) (UniProt P42229); test: Inhibition of STAT5 phosphorylation in Ph+ B-ALL patient with […] mutation derived human Leukemia cell at 50 to 1000 nM by immunoblot analysis; type: cell-based; details: dose 50-1000 nM
# Signal transducer and activator of transcription 5A (Homo sapiens), sequence (P42229 whole entry): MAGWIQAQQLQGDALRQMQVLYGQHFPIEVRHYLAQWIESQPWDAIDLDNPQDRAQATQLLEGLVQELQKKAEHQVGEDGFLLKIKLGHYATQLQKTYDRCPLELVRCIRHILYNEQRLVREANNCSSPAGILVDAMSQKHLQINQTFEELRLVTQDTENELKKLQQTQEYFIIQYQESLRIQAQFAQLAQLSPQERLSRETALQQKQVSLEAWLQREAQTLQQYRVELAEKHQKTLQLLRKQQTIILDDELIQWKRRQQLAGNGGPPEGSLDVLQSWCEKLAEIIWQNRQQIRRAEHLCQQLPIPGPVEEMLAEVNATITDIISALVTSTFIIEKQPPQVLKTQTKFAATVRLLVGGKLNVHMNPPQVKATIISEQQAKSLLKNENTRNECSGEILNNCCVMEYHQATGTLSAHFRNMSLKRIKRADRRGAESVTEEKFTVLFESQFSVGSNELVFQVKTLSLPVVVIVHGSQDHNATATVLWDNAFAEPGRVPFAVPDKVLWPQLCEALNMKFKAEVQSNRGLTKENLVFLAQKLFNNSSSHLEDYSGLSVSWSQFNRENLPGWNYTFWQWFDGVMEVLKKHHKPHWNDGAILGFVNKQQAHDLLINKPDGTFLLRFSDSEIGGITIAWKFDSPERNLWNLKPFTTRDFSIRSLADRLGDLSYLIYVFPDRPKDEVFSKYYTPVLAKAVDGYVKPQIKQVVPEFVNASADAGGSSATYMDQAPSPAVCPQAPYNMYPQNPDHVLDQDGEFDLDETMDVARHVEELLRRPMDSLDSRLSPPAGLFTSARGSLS
# [7] = target: Serine/threonine-protein kinase D2 (Homo sapiens, UniProt Q9BZL6); test: Inhibition of human wild type PKD2 using RBER-CHKtide as substrate preincubated for 2 hrs followed by ATP addition and measured every 2 mins for […] by spectrophotometric analysis
# [8] = Inhibition of human wild type CDK2/A using RBER-CHKtide as substrate preincubated for 2 hrs followed by ATP addition and measured every 2 mins for […] by spectrophotometric analysis
# [9] = target: Tyrosine-protein kinase Mer (Homo sapiens, UniProt Q12866); test: Inhibition of human wild type MER using PolyEY as substrate preincubated for 2 hrs followed by ATP addition and measured every 2 mins for […] by spectrophotometric analysis
# Tyrosine-protein kinase Mer, sequence (Q12866 whole entry): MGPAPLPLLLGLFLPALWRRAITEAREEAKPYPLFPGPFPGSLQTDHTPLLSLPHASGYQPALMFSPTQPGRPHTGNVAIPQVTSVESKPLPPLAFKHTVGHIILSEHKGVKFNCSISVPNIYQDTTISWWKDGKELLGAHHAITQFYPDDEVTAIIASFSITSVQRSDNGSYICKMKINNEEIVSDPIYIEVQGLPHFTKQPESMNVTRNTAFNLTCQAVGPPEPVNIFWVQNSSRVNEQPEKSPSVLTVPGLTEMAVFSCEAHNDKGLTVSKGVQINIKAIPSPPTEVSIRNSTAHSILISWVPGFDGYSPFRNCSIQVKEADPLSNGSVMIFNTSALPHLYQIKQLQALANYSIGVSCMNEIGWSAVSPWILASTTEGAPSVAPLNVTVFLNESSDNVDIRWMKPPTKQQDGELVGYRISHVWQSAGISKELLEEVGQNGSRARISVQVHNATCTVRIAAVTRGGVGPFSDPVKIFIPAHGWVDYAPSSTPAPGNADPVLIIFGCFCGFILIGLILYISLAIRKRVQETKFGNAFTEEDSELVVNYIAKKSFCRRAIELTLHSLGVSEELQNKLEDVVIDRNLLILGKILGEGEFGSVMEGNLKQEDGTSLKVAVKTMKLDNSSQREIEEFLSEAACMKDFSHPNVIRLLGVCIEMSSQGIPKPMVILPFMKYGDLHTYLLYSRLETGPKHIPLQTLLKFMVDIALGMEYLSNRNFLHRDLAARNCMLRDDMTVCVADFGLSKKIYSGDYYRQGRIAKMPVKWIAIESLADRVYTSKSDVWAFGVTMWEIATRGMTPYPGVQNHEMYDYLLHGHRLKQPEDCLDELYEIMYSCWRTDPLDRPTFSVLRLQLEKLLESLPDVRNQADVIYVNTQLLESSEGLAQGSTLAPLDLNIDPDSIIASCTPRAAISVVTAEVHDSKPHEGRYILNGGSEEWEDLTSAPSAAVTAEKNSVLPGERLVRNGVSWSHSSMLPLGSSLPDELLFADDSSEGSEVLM
# Ephrin type-A receptor 7 = Ephrin type-A receptor 7 (Homo sapiens, UniProt Q15375); test: Inhibition of human wild type EPHA7 using PolyEY as substrate preincubated for 2 hrs followed by ATP addition and measured every 2 mins for […] by spectrophotometric analysis
# [10] = target: Dual specificity tyrosine-phosphorylation-regulated kinase 3 (Homo sapiens, UniProt O43781); test: Inhibition of human wild type DYRK3 using RBER-IRStide as substrate preincubated for 2 hrs followed by ATP addition and measured every 2 mins for […] by spectrophotometric analysis
# [11] = target: Tyrosine-protein kinase ABL1 (Homo sapiens, UniProt P00519); details: Sf9, time 2.0 hrs
# Tyrosine-protein kinase ABL1, sequence (P00519 whole entry): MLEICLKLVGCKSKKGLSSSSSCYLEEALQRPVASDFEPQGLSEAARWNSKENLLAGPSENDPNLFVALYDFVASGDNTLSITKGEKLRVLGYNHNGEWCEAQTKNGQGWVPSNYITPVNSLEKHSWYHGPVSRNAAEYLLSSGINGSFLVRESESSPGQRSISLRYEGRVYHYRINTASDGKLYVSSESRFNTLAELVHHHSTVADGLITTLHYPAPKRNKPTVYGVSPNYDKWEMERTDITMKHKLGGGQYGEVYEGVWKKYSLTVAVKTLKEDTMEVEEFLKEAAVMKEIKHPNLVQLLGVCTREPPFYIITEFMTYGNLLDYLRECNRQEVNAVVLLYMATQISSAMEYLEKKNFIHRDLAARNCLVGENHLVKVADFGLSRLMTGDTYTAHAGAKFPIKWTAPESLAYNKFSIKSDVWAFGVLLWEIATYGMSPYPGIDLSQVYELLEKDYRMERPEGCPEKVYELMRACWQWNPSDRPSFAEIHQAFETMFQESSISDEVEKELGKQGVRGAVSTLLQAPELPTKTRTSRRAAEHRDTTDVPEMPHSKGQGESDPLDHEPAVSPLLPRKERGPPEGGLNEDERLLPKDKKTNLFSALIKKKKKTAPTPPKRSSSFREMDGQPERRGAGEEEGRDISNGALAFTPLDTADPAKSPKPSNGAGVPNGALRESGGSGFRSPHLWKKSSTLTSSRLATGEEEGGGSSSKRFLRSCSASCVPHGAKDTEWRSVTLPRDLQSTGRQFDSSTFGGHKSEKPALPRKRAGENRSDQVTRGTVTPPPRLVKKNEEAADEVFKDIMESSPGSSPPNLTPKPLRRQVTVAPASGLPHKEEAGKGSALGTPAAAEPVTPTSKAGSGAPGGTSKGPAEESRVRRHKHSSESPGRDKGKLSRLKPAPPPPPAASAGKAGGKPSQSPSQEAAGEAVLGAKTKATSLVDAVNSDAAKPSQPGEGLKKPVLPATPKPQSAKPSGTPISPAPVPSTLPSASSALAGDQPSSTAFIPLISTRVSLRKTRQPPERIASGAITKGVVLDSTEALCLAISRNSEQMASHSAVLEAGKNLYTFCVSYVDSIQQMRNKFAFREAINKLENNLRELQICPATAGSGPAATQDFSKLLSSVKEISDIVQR
# [12] = target: Tyrosine-protein kinase ZAP-70 (Homo sapiens, UniProt P43403); test: Inhibition of human wild type ZAP70 using PolyEY as substrate preincubated for 2 hrs followed by ATP addition and measured every 2 mins for […] by spectrophotometric analysis
# [13] = target: Vascular endothelial growth factor receptor 3 (Homo sapiens, UniProt P35916); test: Inhibition of human wild type FLT4 using PolyEY as substrate preincubated for 2 hrs followed by ATP addition and measured every 2 mins for […] by spectrophotometric analysis
# [14] = target: Serine/threonine-protein kinase VRK1 (Homo sapiens, UniProt Q99986); test: Inhibition of human wild type VRK1 using RBER-CHKtide as substrate preincubated for 2 hrs followed by ATP addition and measured every 2 mins for […] by spectrophotometric analysis
# Serine/threonine-protein kinase VRK1, sequence (Q99986 whole entry): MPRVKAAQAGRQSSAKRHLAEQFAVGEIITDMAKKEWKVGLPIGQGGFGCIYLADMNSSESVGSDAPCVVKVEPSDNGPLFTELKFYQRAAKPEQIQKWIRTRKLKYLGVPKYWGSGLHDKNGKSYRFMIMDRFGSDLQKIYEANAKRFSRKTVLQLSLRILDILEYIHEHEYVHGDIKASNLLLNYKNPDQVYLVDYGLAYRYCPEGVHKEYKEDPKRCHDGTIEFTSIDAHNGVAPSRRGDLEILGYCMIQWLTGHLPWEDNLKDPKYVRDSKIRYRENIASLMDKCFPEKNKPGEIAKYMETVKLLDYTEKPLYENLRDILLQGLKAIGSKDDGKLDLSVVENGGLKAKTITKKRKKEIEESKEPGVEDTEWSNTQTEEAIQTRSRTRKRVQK
compound,measurement,setting,value
CNC(=O)c1cc(Oc2ccc(NC(=O)Nc3cc(C(C)(C)C)nn3-c3ccc4ncccc4c3)c(F)c2)ccn1 [REBASTINIB],IC50,LIM domain kinase 1,61 nM
same,IC50,Wee1-like protein kinase,> 1000 nM
same,IC50,[1],87 nM
same,IC50,[2],> 1000 nM
same,IC50,[3],> 1000 nM
same,IC50,[4],113 nM
same,IC50,[5],> 1000 nM
same,IC50,TGF-beta receptor type-2,> 1000 nM
same,inhibition,[6],Active
same,IC50,[7],> 1000 nM
same,IC50,[8],> 1000 nM
same,IC50,[9],7.6 nM
same,IC50,Ephrin type-A receptor 7,88 nM
same,IC50,[10],710 nM
same,T1/2,[11],6.7 h
same,IC50,[12],> 1000 nM
same,IC50,[13],240 nM
same,IC50,[14],> 1000 nM
